{"source": "paper PMC5667636", "about": "(Antiviral Research, 2017)", "key": {"[1]": {"system": "neuraminidase (NA) of A(H1N1)pdm09 viruses", "conditions": "cited from earlier work"}, "[2]": {"system": "neuraminidase (NA) of B/Yamagata-lineage viruses", "type": "biochemical, influenza B/Yamagata-lineage virus"}, "[3]": {"system": "neuraminidase (NA) of A(H1N1)pdm09 viruses", "type": "biochemical, influenza A(H1N1)pdm09 virus"}}}
{"smiles": "CCOC(=O)C1=C[C@@H](OC(CC)CC)[C@H](NC(C)=O)[C@@H](N)C1", "note": "[Oseltamivir, oseltamivir]", "values": [{"measurement": "effect on inhibition (IC50 fold)", "setting": "[1]", "value": "5- to 8 fold"}]}
{"smiles": "CCC(CC)[C@H](NC(C)=O)[C@@H]1[C@H](O)[C@@H](C(=O)O)C[C@H]1N=C(N)N", "note": "[Peramivir, peramivir]", "values": [{"measurement": "inhibition phenotype in NAI assay (NI/RI/HRI)", "setting": "[2]", "value": "borderline RI"}, {"measurement": "IC50 fold-change of viruses exhibiting RI/HRI", "setting": "[3]", "value": "10- to 6270 fold"}]}
{"smiles": "CC(=O)N[C@H]1[C@H]([C@H](O)[C@H](O)CO)OC(C(=O)O)=C[C@@H]1N=C(N)N", "note": "[Zanamivir, zanamivir]", "values": [{"measurement": "inhibition phenotype in NAI assay (NI/RI/HRI)", "setting": "[2]", "value": "borderline RI"}]}
